Test results reported in patent US20250011311A1, “AMIDO HETEROAROMATIC COMPOUNDS” (AstraZeneca AB, priority 2022, published 2025).

How the values were obtained:
[1] = molecular target: over expressed HSD17β13 in HEK293S cells (Homo sapiens (Human), UniProt Q7Z5P4); test: In Vitro 17bHSD13 Cell Assay; format: cell-based; conditions: HEK293S cells over expressing HSD17β13; estradiol to estrone conversion, 18 h, LC-MS/MS; read-out: 17bHSD1713 Cell assay IC50
Experimental: In Vitro 17bHSD13 Cell Assay
Inhibition of 17bHSD13 was measured in a cell-based assay with over expressed HSD17β13 in HEK293S cells, measuring estradiol to estrone conversion by LCMS/MS.
Samples were analyzed using LC-MS/MS.
(§1) SCIEX LC-MS/MS system: Sample was injected with CTC analytical injector, SHIMATZU LC pumps LC20 and analysed on the SCIEX API 5000 LCMSMS system with the following settings. […] The mobile phases consist of A (water with 0.2% formic acid) and B (acetonitrile with 0.2% formic acid). The LC gradient profile is as follows: 50% B during 0 to 0.5 min, a linear increase to 100% B during 0.5 to 1 min, hold at 100% B during 1 to 1.6 min then back to 50% B from 1.6 to 2 min. […] Detection was performed on a API 5000 LC/MS/MS system with a triple quadrupole mass spectrometer, a TURBO V ion source, in multiple reaction monitoring (MRM) mode at positive polarity with APCI probe. […] The dwell times were 100 ms for each transition and a depolarization and collision energy of 100 and 40, respectively. Data from MS signals was using area under curve (AUC). Ratio=Estrone/(Estrone+Estradiol)
(§2) […] […] was used for curve fitting and calculation of IC50 values.
(§3) Compound effect was calculated with the formula below;
(§4) where X represents the effect in the presence of test compound, min is DMSO and max is the maximum inhibition of enzyme using a known inhibitor as control.

[2] = molecular target: recombinant 17bHSD13 (N2-K300) (Homo sapiens (Human), UniProt Q7Z5P4); test: In Vitro 17bHSD13 Enzyme Assay; format: biochemical; conditions: 80 nM 17bHSD13, 0.5 mM NAD, 20 μM Estradiol, 2.5 h; estradiol to estrone by LC-MS/MS
Chain of recombinant 17bHSD13 (N2-K300) (Q7Z5P4 2-300): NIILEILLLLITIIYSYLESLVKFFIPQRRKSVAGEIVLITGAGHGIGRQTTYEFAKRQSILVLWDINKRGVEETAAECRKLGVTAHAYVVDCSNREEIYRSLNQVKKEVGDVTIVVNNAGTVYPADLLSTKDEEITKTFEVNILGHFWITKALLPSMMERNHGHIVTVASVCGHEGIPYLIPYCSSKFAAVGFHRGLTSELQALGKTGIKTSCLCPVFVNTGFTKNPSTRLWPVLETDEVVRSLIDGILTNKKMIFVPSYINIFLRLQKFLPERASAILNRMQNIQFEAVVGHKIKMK
Experimental: In Vitro 17bHSD13 Enzyme Assay
The enzyme reaction was initiated by addition, using CERTUS-FLEX dispenser (GYGER), of 20 μl of substrate solution containing NAD (SIGMA, N1511) and Estradiol (SIGMA, E8875). […] Final assay conditions were 80 nM of 17bHSD13, 0.5 mM of NAD, 20 μM Estradiol and various concentrations of compound in buffer (5 mM EDTA (TEKNOVA E0306), 0.01% DDM (AFFYMETRIX D310) in 50 mM Tris-Cl, pH 7.4).
as §1, with “analyzed” for “analysed”
as §2, §3, §4

[3] = molecular target: recombinant 17bHSD4 (M1-N311) (Homo sapiens (Human), UniProt P51659); test: In Vitro 17bHSD4 Enzyme Assay; format: biochemical; conditions: 40 nM 17bHSD4, 0.125 mM NAD, 15 μM Estradiol, 1.5 h; NADH fluorescence; read-out: 17HSD17b4 Enzyme assay IC50
Chain of recombinant 17bHSD4 (M1-N311) (P51659 1-311): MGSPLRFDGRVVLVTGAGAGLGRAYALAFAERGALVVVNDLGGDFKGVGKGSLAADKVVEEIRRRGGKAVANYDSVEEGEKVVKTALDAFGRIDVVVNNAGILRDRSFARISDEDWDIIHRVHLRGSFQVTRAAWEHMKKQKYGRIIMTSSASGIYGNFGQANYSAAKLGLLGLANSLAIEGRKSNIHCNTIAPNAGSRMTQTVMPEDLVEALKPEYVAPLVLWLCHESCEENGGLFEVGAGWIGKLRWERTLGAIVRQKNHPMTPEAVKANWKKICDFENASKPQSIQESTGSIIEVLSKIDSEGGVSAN
Experimental: In Vitro 17bHSD4 Enzyme Assay
10 concentration of compounds (0.2 μl) in DMSO was added to GREINER FLUOTRAC 200 384 well plate (781076) using ECHO dispensing (BECKMAN COULTER). 80 nl of 10 mM Estradiol (SIGMA, E8875) was added using Echo dispensing. The enzyme reaction was initiated by addition, using MULTIDROP COMBI dispensing (THERMO FISHER), of 40 μl of a mix containing recombinant 17bHSD4 (M1-N311) and NAD. Final assay conditions were 40 nM of 17bHSD4, 0.125 mM of NAD, 15 μM Estradiol and various concentrations of compound in buffer (5 mM EDTA (TEKNOVA E0306), 0.01% DDM (AFFYMETRIX D310) in 50 mM Tris-Cl, pH 7.4). After each addition plates were centrifuged for 1 min at 150×g (EPPENDORF, 5810R, A-4-81). NADH formation was measured by fluorescence intensity (FI) (Ex360/Em460) at time zero (to) and at 1.5 h (t1) in a PHERASTAR FSX (BMG LABTECH). FI for each sample was calculated as FI at t1 minus FI at t0.
as §2, §3, §4

[4] = molecular target: over expressed HSD17β9 in HEK293S cells (Homo sapiens (Human), UniProt Q92781); test: In Vitro 17bHSD9 Cell Assay; format: cell-based; conditions: HEK293S cells over expressing HSD17β9; retinol to retinal conversion, 18 h, LC-MS/MS; read-out: 17bHSD9 Cell assay IC50
Chain of over expressed HSD17β9 in HEK293S cells (Q92781 whole entry): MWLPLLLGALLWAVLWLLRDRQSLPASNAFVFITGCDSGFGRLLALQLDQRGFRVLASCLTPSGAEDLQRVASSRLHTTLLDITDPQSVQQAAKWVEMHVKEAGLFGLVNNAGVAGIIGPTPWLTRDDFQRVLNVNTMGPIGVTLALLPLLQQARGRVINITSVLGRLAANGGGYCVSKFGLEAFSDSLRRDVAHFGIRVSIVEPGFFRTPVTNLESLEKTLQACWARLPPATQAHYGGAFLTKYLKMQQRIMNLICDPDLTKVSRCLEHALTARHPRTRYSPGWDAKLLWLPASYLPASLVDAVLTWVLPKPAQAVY
Experimental: In Vitro 17bHSD9 Cell Assay
Inhibition of 17bHSD9 was measured in a cell-based assay with over expressed HSD17β9 in HEK293S cells, measuring retinol to retinal conversion by LCMS/MS.
Cells were plated in 384 well plates (GREINER CELL culture plate 384w black/clear Poly-D-Lysine) at 10 K c/w in 30 μl of culture media (DMEM with GLUTAMAX plus 10% FBS). […] After 18 h of cell culturing for 20 μl of media was transferred using BRAVO dispensing robot (AGILENT) to a GREINER PP 384 well plate (781280) and 40 μl of 50% acetonitrile was added. Samples were analyzed using LC-MS/MS.
SCIEX LC-MS/MS system: Sample was injected with CTC analytical injector, SHIMATZU LC pumps LC20 and analysed on the SCIEX API 5000 LCMSMS system with the following settings. Samples were chromatographed on a WATERS, symmetry, C8, 3.5 μm, 2.1×50 mm) column at constant flow rate of 0.5 mL/min. The mobile phases consists of A (water with 0.2% formic acid) and B (acetonitrile with 0.2% formic acid). The LC gradient profile is as follows: 50% B during 0 to 0.1 min, a linear increase to 100% B during 0.1 to 0.8 min, hold at 100% B during 0.8 to 1.5 min then back to 50% B from 1.5 to 1.6 min and hold during run time. The run time was 2 min with retention times of approximately 1.54 and 1.62 min for Retinol and Retinal, respectively. Detection was performed on a API 5000 LC/MS/MS system with a triple quadrupole mass spectrometer, a TURBO V ion source, in multiple reaction monitoring (MRM) mode at positive polarity with ESI probe. The MRM pairs were m/z 269.3 to m/z 93.0 and m/z 285.2 to 161.0. for Retinol and Retinal, respectively. The dwell times were 100 ms for each transition and a depolarization and collision energy of 50 and 25, respectively. Data from MS signals was using area under curve (AUC). Ratio=Retinal/(Retinal+Retinol).
as §2, §3, §4

Chain of over expressed HSD17β13 in HEK293S cells (Q7Z5P4 20-300): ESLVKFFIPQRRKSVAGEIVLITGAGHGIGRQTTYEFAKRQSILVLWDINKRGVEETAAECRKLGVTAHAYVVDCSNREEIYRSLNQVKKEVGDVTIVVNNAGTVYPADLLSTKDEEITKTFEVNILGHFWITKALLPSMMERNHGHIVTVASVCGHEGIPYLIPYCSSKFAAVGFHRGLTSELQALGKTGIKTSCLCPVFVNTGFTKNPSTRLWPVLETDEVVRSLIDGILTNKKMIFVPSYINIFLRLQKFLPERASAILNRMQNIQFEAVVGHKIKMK

Structure (SMILES) | IC50 [1] [nM] | IC50 [2] [nM] | IC50 [3] [µM] | IC50 [4] [µM]
CC(C)c1noc(C2=CCN(C(=O)c3noc(-c4cc(F)c(F)c(O)c4F)n3)CC2)n1 [Example 107, (4-(3-Isopropyl-1,2,4-oxadiazol-5-yl)-3,6-dihydropyridin-1(2H)-yl)(5-(2,4,5-trifluoro-3-hydroxyphenyl)-1,2,4-oxadiazol-3-yl)methanone] | 370 | 143 | 10.5 | 5
COc1ccccc1N1CCN(C(=O)c2noc(-c3cc(F)c(F)c(O)c3F)n2)CC1 [Example 84, (4-(2-Methoxyphenyl)piperazin-1-yl)(5-(2,4,5-trifluoro-3-hydroxyphenyl)-1,2,4-oxadiazol-3-yl)methanone] | 300 | 198 | 19.8 | > 50
O=C(c1noc(-c2cc(F)c(F)c(O)c2F)n1)N1CCOC2(CCCC2)C1 [Example 45, (6-Oxa-9-azaspiro[4.5]decan-9-yl)(5-(2,4,5-trifluoro-3-hydroxyphenyl)-1,2,4-oxadiazol-3-yl)methanone] | 510 | 466 | > 50 | 4.1
O=C(c1noc(-c2cc(F)c(F)c(O)c2F)n1)N1CC=C(c2ccccc2)CC1 [Example 62, (4-Phenyl-3,6-dihydropyridin-1(2H)-yl)(5-(2,4,5-trifluoro-3-hydroxyphenyl)-1,2,4-oxadiazol-3-yl)methanone] | 960 | 46 | 3 | 15.8
O=C(c1noc(-c2cc(F)c(F)c(O)c2F)n1)N1CCOC2(CCOCC2)C1 [Example 53, (1,9-Dioxa-4-azaspiro[5.5]undecan-4-yl)(5-(2,4,5-trifluoro-3-hydroxyphenyl)-1,2,4-oxadiazol-3-yl)methanone] | 5610 | 2780 | > 50 | > 50
C[C@@H]1CN(C(=O)c2noc(-c3cc(O)c(F)c(F)c3)n2)C[C@H](C)O1 [Example 116, (5-(3,4-Difluoro-5-hydroxyphenyl)-1,2,4-oxadiazol-3-yl)((2R,6S)-2,6-dimethylmorpholino)methanone] | 60 | 117 | > 50 | > 50
COc1ccc(OC2CCN(C(=O)c3noc(-c4cc(F)c(F)c(O)c4F)n3)CC2)nc1 [Example 68, (4-((5-Methoxypyridin-2-yl)oxy)piperidin-1-yl)(5-(2,4,5-trifluoro-3-hydroxyphenyl)-1,2,4-oxadiazol-3-yl)methanone] | 800 | 44 | 26.3 | 30.4
C[C@@H]1CN(C(=O)c2nc(-c3cc(F)c(F)c(O)c3F)no2)C[C@H](C)O1 [Example 110, ((2R,6S)-2,6-Dimethylmorpholino)(3-(2,4,5-trifluoro-3-hydroxyphenyl)-1,2,4-oxadiazol-5-yl)methanone] | 240 | 1010 | > 50 | > 50
C[C@@H]1CCN(C(=O)c2noc(-c3cc(F)c(F)c(O)c3F)n2)CCO1 [Example 51, (R)-(7-Methyl-1,4-oxazepan-4-yl)(5-(2,4,5-trifluoro-3-hydroxyphenyl)-1,2,4-oxadiazol-3-yl)methanone] | 2690 | 1690 | > 50 | > 50
O=C(c1noc(-c2cc(F)c(F)c(O)c2F)n1)N1CCOC2(CCC2)C1 [Example 52, (5-Oxa-8-azaspiro[3.5]nonan-8-yl)(5-(2,4,5-trifluoro-3-hydroxyphenyl)-1,2,4-oxadiazol-3-yl)methanone] | 480 | 281 | 34.6 | 1.2
CC1(C)COCCN1C(=O)c1noc(-c2cc(F)c(F)c(O)c2F)n1 [Example 48, (3,3-Dimethylmorpholino)(5-(2,4,5-trifluoro-3-hydroxyphenyl)-1,2,4-oxadiazol-3-yl)methanone] | 1100 | 388 | > 50 | > 50
